Values of other authors in patent publication US9801907B2, “Film-coated and/or granulated calcium-containing compounds and use therof in pharmaceutical compositions” (Takeda Nycomed AS, priority 2005, dated 2017).

Legend:
[1] = parts substance in parts water
[2] = annual injections of 150.000-300.000 IU; not in the rate of hip fracture

Row | Solubility in water at 20° C. [1] | Compound | overall fracture rate [2]
1 | Freely soluble | OC[C@@H](O)[C@@H](O[C@H]1O[C@H](CO)[C@@H](O)[C@H](O)[C@H]1O)[C@H](O)[C@@H](O)CO [Maltitol] | –
2 | Freely soluble | Maltodextrins | –
3 | – | vitamin D | significant reduction
